# Results as given in PubChem BioAssay (NCI).
#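 Growth conditions: 96-well plates. Treatment: test compound, 48 hours, 5 concentrations. Analysis: linear interpolation between bracketing concentrations; unreached endpoints set to highest concentration. TGI: concentration producing complete growth inhibition.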
# Columns and labels:
# Assay in all cases: inhibition of tumour cell growth, NCI panel, 48 h
# [1] = test system: SK-OV-3 ovarian
# [2] = test system: SK-MEL-5 melanoma
# [3] = test system: MDA-MB-435
# [4] = test system: EKVX NSCLC
# [5] = test system: HL-60(TB) leukemia
# [6] = test system: K-562 leukemia
# [7] = test system: HT29 colon
# [8] = test system: NCI-H226 lung
# [9] = test system: MDA-MB-231 breast
# [10] = test system: SF-295 CNS
# [11] = test system: A549 NSCLC
# [12] = test system: HCT-15 colon
# [13] = test system: IGROV1 ovarian
# [14] = test system: SF-268 CNS
# [15] = test system: SK-MEL-28 melanoma
# [16] = test system: MDA-N
# [17] = test system: PC-3 prostate
# [18] = test system: MOLT-4 leukemia
# [19] = test system: SNB-19 CNS
# [20] = test system: HCT-116 colon
# [21] = test system: RXF 393 renal
# [22] = test system: M14 melanoma
# [23] = test system: OVCAR-8 ovarian
# [24] = test system: OVCAR-5 ovarian
# [25] = test system: DU-145 prostate
# [26] = test system: NCI-H460 lung
# [27] = test system: HCC-2998 colon
# [28] = test system: T-47D breast
# [29] = test system: KM12 colon
# [30] = test system: OVCAR-4 ovarian
# [31] = test system: MALME-3M melanoma
# [32] = test system: OVCAR-3 ovarian
# [33] = test system: TK-10 renal
# [34] = test system: NCI-H23 lung
# [35] = test system: SN12C renal
# [36] = test system: U251 CNS
# [37] = test system: HOP-62 NSCLC
# [38] = test system: SK-MEL-2 melanoma
# [39] = test system: MCF7 breast
# [40] = test system: UACC-62 melanoma
# [41] = test system: HS 578T breast
# [42] = test system: HOP-92 NSCLC
# [43] = test system: RPMI-8226 leukemia
# [44] = test system: 786-0 renal
# [45] = test system: ACHN renal
# [46] = test system: COLO 205 colon
# [47] = test system: SF-539 CNS
# [48] = test system: CCRF-CEM leukemia
# [49] = test system: CAKI-1 renal
# [50] = test system: NCI-H522 lung
# [51] = test system: A498 renal
# [52] = test system: UO-31 renal
# [53] = test system: LOX IMVI melanoma
# [54] = test system: NCI/ADR-RES ovarian
# [55] = test system: UACC-257 melanoma
# [56] = test system: SNB-75 CNS
# [57] = test system: SW-620 colon
# [58] = test system: SR leukemia
structure (smiles),measurement,setting,value
CCN(CC)CCC1CCCCN1CC(=O)N1c2cc(Cl)ccc2NC(=O)CC1C (configuration not stated),TGI,[1],> 100 µM
same,TGI,[2],> 100 µM
same,TGI,[3],> 100 µM
same,TGI,[4],> 100 µM
same,TGI,[5],> 100 µM
same,TGI,[6],> 100 µM
same,TGI,[7],> 100 µM
same,TGI,[8],> 100 µM
same,TGI,[9],> 100 µM
same,TGI,[10],> 100 µM
same,TGI,[11],> 100 µM
same,TGI,[12],> 100 µM
same,TGI,[13],> 100 µM
same,TGI,[14],> 100 µM
same,TGI,[15],> 100 µM
same,TGI,[16],> 100 µM
same,TGI,[17],> 100 µM
same,TGI,[18],> 100 µM
same,TGI,[19],> 100 µM
same,TGI,[20],> 100 µM
same,TGI,[21],> 100 µM
same,TGI,[22],> 100 µM
same,TGI,[23],> 100 µM
same,TGI,[24],> 100 µM
same,TGI,[25],> 100 µM
same,TGI,[26],> 100 µM
same,TGI,[27],> 100 µM
same,TGI,[28],> 100 µM
same,TGI,[29],> 100 µM
same,TGI,[30],> 100 µM
same,TGI,[31],> 100 µM
same,TGI,[32],> 100 µM
same,TGI,[33],> 100 µM
same,TGI,[34],> 100 µM
same,TGI,[35],> 100 µM
same,TGI,[36],> 100 µM
same,TGI,[37],> 100 µM
same,TGI,[38],> 100 µM
same,TGI,[39],> 100 µM
same,TGI,[40],> 100 µM
same,TGI,[41],> 100 µM
same,TGI,[42],> 100 µM
same,TGI,[43],> 100 µM
same,TGI,[44],> 100 µM
same,TGI,[45],> 100 µM
same,TGI,[46],> 100 µM
same,TGI,[47],> 100 µM
same,TGI,[48],> 100 µM
same,TGI,[49],> 100 µM
same,TGI,[50],> 100 µM
same,TGI,[51],> 100 µM
same,TGI,[52],> 100 µM
same,TGI,[53],> 100 µM
CCOC(=O)N1CCC2(CC1)C[C@@](C(C)=O)(c1ccccc1)C(C)O2 (some centres not stated),TGI,[1],> 100 µM
same,TGI,[2],> 100 µM
same,TGI,[3],> 100 µM
same,TGI,[4],> 100 µM
same,TGI,[5],> 100 µM
same,TGI,[6],> 100 µM
same,TGI,[7],> 100 µM
same,TGI,[8],> 100 µM
same,TGI,[9],> 100 µM
same,TGI,[10],> 100 µM
same,TGI,[11],> 100 µM
same,TGI,[12],> 100 µM
same,TGI,[13],> 100 µM
same,TGI,[14],> 100 µM
same,TGI,[15],> 100 µM
same,TGI,[16],> 100 µM
same,TGI,[17],> 100 µM
same,TGI,[18],> 100 µM
same,TGI,[19],> 100 µM
same,TGI,[54],> 100 µM
same,TGI,[22],> 100 µM
same,TGI,[23],> 100 µM
same,TGI,[24],> 100 µM
same,TGI,[25],> 100 µM
same,TGI,[26],> 100 µM
same,TGI,[27],> 100 µM
same,TGI,[28],91.4 µM
same,TGI,[29],> 100 µM
same,TGI,[30],> 100 µM
same,TGI,[55],> 100 µM
same,TGI,[31],> 100 µM
same,TGI,[32],> 100 µM
same,TGI,[33],> 100 µM
same,TGI,[34],> 100 µM
same,TGI,[36],> 100 µM
same,TGI,[37],> 100 µM
same,TGI,[38],> 100 µM
same,TGI,[39],> 100 µM
same,TGI,[40],> 100 µM
same,TGI,[41],> 100 µM
same,TGI,[42],> 100 µM
same,TGI,[43],> 100 µM
same,TGI,[44],> 100 µM
same,TGI,[45],> 100 µM
same,TGI,[46],> 100 µM
same,TGI,[47],> 100 µM
same,TGI,[49],> 100 µM
same,TGI,[50],> 100 µM
same,TGI,[56],> 100 µM
same,TGI,[51],> 100 µM
same,TGI,[52],> 100 µM
same,TGI,[53],> 100 µM
same,TGI,[57],> 100 µM
O=C1CN(c2cccc(C(F)(F)F)c2)C(=O)CN1CCN1CC(=O)N(c2cccc(C(F)(F)F)c2)CC1=O,TGI,[1],> 100 µM
same,TGI,[2],> 100 µM
same,TGI,[3],> 100 µM
same,TGI,[4],> 100 µM
same,TGI,[5],> 100 µM
same,TGI,[6],> 100 µM
same,TGI,[7],> 100 µM
same,TGI,[9],> 100 µM
same,TGI,[10],> 100 µM
same,TGI,[11],> 100 µM
same,TGI,[12],> 100 µM
same,TGI,[13],> 100 µM
same,TGI,[14],> 100 µM
same,TGI,[15],> 100 µM
same,TGI,[16],> 100 µM
same,TGI,[17],> 100 µM
same,TGI,[18],> 100 µM
same,TGI,[58],> 100 µM
same,TGI,[19],> 100 µM
same,TGI,[20],> 100 µM
same,TGI,[54],> 100 µM
same,TGI,[22],> 100 µM
same,TGI,[23],> 100 µM
same,TGI,[24],> 100 µM
same,TGI,[26],> 100 µM
same,TGI,[27],> 100 µM
same,TGI,[28],> 100 µM
same,TGI,[29],> 100 µM
same,TGI,[30],> 100 µM
same,TGI,[55],> 100 µM
same,TGI,[33],> 100 µM
same,TGI,[35],> 100 µM
same,TGI,[36],> 100 µM
same,TGI,[37],> 100 µM
same,TGI,[39],> 100 µM
same,TGI,[41],> 100 µM
same,TGI,[43],> 100 µM
same,TGI,[44],> 100 µM
same,TGI,[45],> 100 µM
same,TGI,[46],> 100 µM
same,TGI,[47],> 100 µM
same,TGI,[48],> 100 µM
same,TGI,[50],> 100 µM
same,TGI,[56],> 100 µM
same,TGI,[52],> 100 µM
same,TGI,[57],> 100 µM
